Drawing on ChEMBL document CHEMBL4673334, “In Vivo Biological Evaluation of a Synthetic Royleanone Derivative as a Promising Fast-Acting Trypanocidal Agent by Inducing Mitochondrial-Dependent Necrosis” (J Nat Prod, 2020), this text covers Activity and inhibition for one compound.

The test system of experiment [1] is Trypanosoma cruzi. The experiment is described as follows: Antitrypanosomal activity against Trypanosoma cruzi MHOM/Pe/2011/Arequipa(DTU V) amastigote form infected in BALB/c mouse assessed as reduction in parasitaemia at 20 mg/kg, po for 5 days starting at 9 days post infection and measured after 7 days post infection relative to control. The class given is functional. Also on record: scale not given: the % may be the effect or the level left. Particulars: time 5 day.

Experiment [2] deals with Trypanosoma cruzi. Description: Inhibition of Trypanosoma cruzi MHOM/Pe/2011/Arequipa(DTU V) epimastigote form Fe-SOD at 12.5 uM by UV-VIS spectrophotometric method relative to control.
For experiment [3], the system named is Trypanosoma cruzi. Description: Antitrypanosomal activity against Trypanosoma cruzi MHOM/Pe/2011/Arequipa(DTU V) amastigote form infected in BALB/c mouse assessed as reduction in parasite growth at 20 mg/kg, po administered for 5 days starting at 9 days post infection and measured up to 106 days post infection by ELISA assay. The conditions noted are these: time 5.0 day. The experiment is classed as functional, organism-based.

In experiment [4] the test system is Trypanosoma cruzi. Description: Inhibition of Trypanosoma cruzi MHOM/Pe/2011/Arequipa(DTU V) epimastigote form Fe-SOD at 25 uM by UV-VIS spectrophotometric method relative to control.
Experiment [5] deals with Trypanosoma cruzi. Description: Antitrypanosomal activity against Trypanosoma cruzi MHOM/Pe/2011/Arequipa(DTU V) amastigote form infected in BALB/c mouse assessed as reduction in parasitaemia at 20 mg/kg, po for 5 days starting at 9 days post infection and measured after 13 to 35 days post infection. The experiment is classed as functional, organism-based. The conditions noted are these: time 5.0 day.

Experiment [6] relates to Trypanosoma cruzi. Description: Antitrypanosomal activity against Trypanosoma cruzi MHOM/Pe/2011/Arequipa(DTU V) amastigote form infected in BALB/c mouse assessed as reduction in spleen enlargement at 20 mg/kg, po administered for 5 days starting at 9 days post infection and measured after 145 days post infection. The class given is functional, organism-based. Particulars: time 5.0 day.

Experiment [7] deals with Trypanosoma cruzi. Description: Antitrypanosomal activity against Trypanosoma cruzi MHOM/Pe/2011/Arequipa(DTU V) amastigote form infected in BALB/c mouse assessed as reduction in spleen enlargement at 20 mg/kg, po administered for 5 days starting at 100 days post infection and measured after 145 days post infection. The experiment is classed as functional, organism-based. The conditions noted are these: time 5.0 day.

For orientation: inhibition means the change of the read-out against control, counted positive when it falls.

Active and inactive are the calls of the source. No cut-off for these calls is given here.

On to `COC(=O)[C@]1(C)CCC[C@]2(C)C3=C(C=C[C@@H]12)C(=O)C(C(C)C)=CC3=O`, for which the Activity in the experiment with Trypanosoma cruzi [1] amounted to 65%. The figures for the inhibition with Trypanosoma cruzi [2] and with Trypanosoma cruzi [4] were 80% and 100%, respectively. In addition, the result in the experiment on Trypanosoma cruzi [3], in the experiment with Trypanosoma cruzi [5], with Trypanosoma cruzi [6] and in the experiment with Trypanosoma cruzi [7] was Active.
